Six compounds from US11359200B2, “Cancer treatment by MALAT1 inhibition” (THE CLEVELAND CLINIC FOUNDATION, priority 2017, dated 2022) can be followed below.

d = 2'-deoxy (DNA); m = 2'-O-methyl

Series [1] has as its system γH2A.X. The series is described as follows: Immunofluorescence staining and western blot for γH2A.X after MALAT1 knock-down. The series is classed as cell-based, Human. As to conditions: H929, MM.1S and RPMI8226 cells, 48 h after transfection. On the procedure: Protein was extracted from cells using RIPA buffer (Thermo Fisher Scientific) containing protease inhibitor cocktail (Roche) and phosphatase inhibitor cocktail (Thermo Fisher Scientific). Protein extracts were boiled in SDS/β-mercaptoethanol sample buffer, and 30 μg samples were loaded into each well on 4%-12% polyacrylamide gels (Thermo Fisher Scientific). The proteins were separated by electrophoresis, and the proteins in the gels were blotted onto PVDF membranes (Thermo Fisher Scientific) by electrophoretic transfer. […] The specific protein—antibody complex was detected with horseradish peroxidase-conjugated rabbit anti-mouse IgG. […]
(In general: In western blotting, separated proteins are transferred to a membrane and probed.)

Series [2] relates to MALAT1. The series is described as follows: MALAT1 knock-down in MM cells by qRT-PCR. In kind it is cell-based, Human. As to conditions: H929, MM.1S and RPMI8226 cells, 48 h after transfection. On the procedure: (§1) For anti-MALAT1 transfection and ABT-888 (Santa Cruz Biotechnology Inc) or bortezomib (MilliporeSigma) treatment, MM cells were seeded on 12-well plates at a concentration of 5×10^5 cells/mL. The cells were transfected using Lipofectamine 2000 (Thermo Fisher Scientific) with 1 nM control or anti-MALAT1 oligos for 24 hours and then treated with a gradient concentration of ABT-888 or bortezomib for another 24 hours. Cells were subjected to proliferation and apoptosis assays, qRT-PCR, and immunoblotting.
Quantitative RT-PCR (qRT-PCR) analysis was used to determine the relative expression level of MALAT1. Total RNA was extracted from cells or tissues using Trizol Reagent (Thermo Fisher Scientific) according to the manufacturer's instructions. After Turbo DNase (Thermo Fisher Scientific) treatment, 500 ng total RNA was subjected to reverse transcription using the RevertAid first-stand cDNA synthesis kit (Thermo Fisher Scientific). Quantitative PCR using SYBR Green PCR master mix (Thermo Fisher Scientific) was employed to determine MALAT1 level with PCR cycle conditions of 95° C. 10 min, 95° C. 15 s, and 60° C. 1 min, for 40 cycles. GAPDH was used as loading control.
For orientation: Quantitative PCR measures a nucleic acid by following its amplification.

For series [3], the target named is T1, PARP1 (Homo sapiens, UniProt P09874).
T1 construct: Protein was extracted from cells using RIPA buffer; endogenous in cells; host or cells: H929, MM.1S (human multiple myeloma cell lines, ATCC)
The series is described as follows: Immunoblotting after anti-MALAT1 and ABT-888 treatment. In kind it is cell-based. The protocol: (§2) Cells were subjected to proliferation and apoptosis assays, qRT-PCR, and immunoblotting.
(§3) Protein was extracted from cells using RIPA buffer (Thermo Fisher Scientific) containing protease inhibitor cocktail (Roche) and phosphatase inhibitor cocktail (Thermo Fisher Scientific). Protein extracts were boiled in SDS/β-mercaptoethanol sample buffer, and 30 μg samples were loaded into each well on 4%-12% polyacrylamide gels (Thermo Fisher Scientific). The proteins were separated by electrophoresis, and the proteins in the gels were blotted onto PVDF membranes (Thermo Fisher Scientific) by electrophoretic transfer. […] The specific protein—antibody complex was detected with horseradish peroxidase-conjugated rabbit anti-mouse IgG. Detection by chemiluminescence reaction was carried using the SuperSignal West Femto Maximum Sensitivity Substrate kit (Thermo Fisher Scientific). β-actin was used as a loading control.

Series [4] has as its system H929, MM.1S and RPMI8226 cells. The series is described as follows: MM cell apoptosis assay (annexin V/PI flow cytometry). The series is classed as cell-based, Human. As to conditions: high-/low-dose bortezomib treatment. On the procedure: as §1
After transfection of cells with anti-MALAT1 #1 or #2 and control, apoptosis was evaluated by assaying for annexin V. Cells were stained with APC Annexin V Apoptosis Detection Kit with PI (BioLegend), according to the manufacturer's instructions. Stained cells were analyzed using flow cytometry, and data were analyzed using Flowjo software (Ashland).
A general note: A flow cytometer gives signals particle by particle.

In series [5] the test system is BRCA1 and BRCA2. The series is described as follows: Immunoblotting of BRCA1 and BRCA2 after bortezomib treatment. The series is classed as cell-based, Human. As to conditions: H929, MM.1S and RPMI8226, high-dose bortezomib. The protocol: as §2, §3
Series [6] concerns RPMI8226/V10R cells. Kind of series: Cell viability assay, bortezomib-resistant cells. The series is classed as cell-based. As to conditions: Homo sapiens, RPMI-8226, 72 h. The protocol:
(§4) For the drug resistant cells, RPMI8226/DOX40, RPMI8226/LR5 and RPMI8226/V10R cells were transfected with 1 nM control or anti-MALAT1 oligos separately for 24 hours and treated with a gradient concentration of doxorubicin for RPMI8226/DOX40, or melphalan for RPMI8226/LR5, or bortezomib for RPMI8226/V10R for 72 hours. Cell were subjected to qRT-PCR, proliferation and apoptosis assays.
(§5) MM cell lines (MM.1S, H929 and RPMI8226) and drug resistant MM cell lines (RPMI8226/LR5, RPMI8226/DOX40 and RPMI8226/V10R) were treated with anti-MALAT1 oligos for 24 hours. 2×10^4 cells/well were seeded in a 96-well plate with 100 μL medium containing gradient concentration of bortezomib, melphalan or doxorubicin per well. After 72 hours culture, cells were subjected to cell viability assay using CellTilter 96® Aqueous One Solution Cell Proliferation Assay (Promega Corporation), according to the manufacturer's instructions. The half maximal inhibitory concentration (IC50) was calculated by Graphpad Prism V5.0.

The subject of series [7] is RPMI8226 cells. The series is described as follows: Cell viability assay, bortezomib with or without MALAT1 knockdown. The series is classed as cell-based. As to conditions: Homo sapiens, RPMI-8226, third cell line (RPMI8226, FIG. 6C). On the procedure: as §1, §5
Series [8] relates to MM.1S cells. Described as above. The series is classed as cell-based. As to conditions: Homo sapiens, MM1.S. The protocol:
as §1, §5

Series [9] deals with H929 cells. The description is as above. As to conditions: Homo sapiens. The series is classed as cell-based. On the procedure:
as §1, §5

Series [10] concerns RPMI8226/DOX40 cells. Kind of series: Cell viability assay, doxorubicin-resistant cells. The series is classed as cell-based. As to conditions: Homo sapiens, RPMI-8226, 72 h. The protocol:
as §4, §5

Series [11] relates to RPMI8226/LR5 cells. The series is described as follows: Cell viability assay, melphalan-resistant cells. The series is classed as cell-based. As to conditions: Homo sapiens, RPMI-8226, 72 h. The protocol: as §4, §5
Where [12] appears, read: transfected with 1 nM anti-MALAT1, 72 hours.

By IC50 is commonly meant the point on the concentration scale where inhibition reaches its midpoint.

T1 sequence (P09874 whole entry): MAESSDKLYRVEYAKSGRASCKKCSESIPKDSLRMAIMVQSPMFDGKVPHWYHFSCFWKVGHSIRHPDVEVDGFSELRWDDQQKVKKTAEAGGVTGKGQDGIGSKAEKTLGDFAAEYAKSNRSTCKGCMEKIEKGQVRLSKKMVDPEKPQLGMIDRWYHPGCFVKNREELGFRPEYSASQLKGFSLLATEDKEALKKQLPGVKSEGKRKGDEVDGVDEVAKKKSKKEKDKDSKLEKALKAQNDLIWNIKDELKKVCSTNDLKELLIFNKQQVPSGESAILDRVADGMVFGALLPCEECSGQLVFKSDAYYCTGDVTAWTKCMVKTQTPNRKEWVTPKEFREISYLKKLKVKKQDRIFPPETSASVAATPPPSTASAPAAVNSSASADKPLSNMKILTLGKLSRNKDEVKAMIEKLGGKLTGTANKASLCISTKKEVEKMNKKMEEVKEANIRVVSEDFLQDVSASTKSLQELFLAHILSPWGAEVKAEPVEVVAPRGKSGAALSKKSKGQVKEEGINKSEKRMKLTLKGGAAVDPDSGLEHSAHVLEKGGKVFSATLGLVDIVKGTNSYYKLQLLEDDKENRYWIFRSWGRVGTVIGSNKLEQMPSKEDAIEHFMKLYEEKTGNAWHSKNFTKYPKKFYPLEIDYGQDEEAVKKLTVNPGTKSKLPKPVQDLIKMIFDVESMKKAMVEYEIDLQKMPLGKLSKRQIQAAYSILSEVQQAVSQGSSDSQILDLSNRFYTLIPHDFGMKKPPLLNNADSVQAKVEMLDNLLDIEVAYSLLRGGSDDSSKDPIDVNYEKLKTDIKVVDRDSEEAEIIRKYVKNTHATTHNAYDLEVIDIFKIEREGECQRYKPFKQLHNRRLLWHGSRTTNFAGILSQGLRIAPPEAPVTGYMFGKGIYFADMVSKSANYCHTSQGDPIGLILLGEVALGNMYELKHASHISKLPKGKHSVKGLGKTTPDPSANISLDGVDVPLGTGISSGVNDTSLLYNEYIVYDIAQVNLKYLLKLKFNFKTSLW

As for “5′-mC*mG*mA*mA*mA*C*A*T*T*G*G*C*A*C*A*mC*mA*mG*mC*mA-3′ (antisense CGAAACATTGGCACACAGCA; sugars from the 5' end m5 d10 m5, all phosphorothioate, methylation of C not given here) [anti-MALAT1-1]”, in [1], the “frequency of DNA break (γH2A.X)” value is given as “increased substantially”. Moreover, the “MALAT1 level (qRT-PCR)” value in [2] is “efficiently knocked-down”.
Take “5′-mG*mG*mC*mA*mU*A*T*G*C*A*G*A*T*A*A*mU*mG*mU*mU*mC-3′ (antisense GGCAUATGCAGATAAUGUUC; sugars from the 5' end m5 d10 m5, all phosphorothioate, methylation of C not given here) [anti-MALAT1-2]”: the “frequency of DNA break (γH2A.X)” value in series [1] was “increased substantially”. In addition, the “MALAT1 level (qRT-PCR)” value in series [2] is on record as “efficiently knocked-down”.
As to `C[C@]1(c2nc3c(C(N)=O)cccc3[nH]2)CCCN1` [ABT888], the PAR signal result in series [3] (H929 and MM.1S, treated synchronously with anti-MALAT1 and ABT888) was “dose-dependent decreased”. Further, in series [3] (combination treatment anti-MALAT1 and ABT888), the “level of γH2A.X, cleaved PARP1, and cleaved caspase-3” value is listed as “significantly increased”.
On to `CC(C)C[C@H](NC(=O)[C@H](Cc1ccccc1)NC(=O)c1cnccn1)B(O)O` [bortezomib], for which the “γH2A.X signals and apoptosis ratio” value in [4] is reported as “increased”. In addition, the “expression of BRCA1 and BRCA2” value in [5] is listed as “dramatically down-regulated”. The IC50 in series [6] (control oligos, 72 hours) came to 0.194 µM; in series [6] (setting [12]) it was 0.144 µM; in [7] (control) it was 0.0101 µM; in [7] (transfected with 1 nM anti-MALAT1) it was 0.0082 µM; in series [8] (MM.1S cells transfected with 1 nM anti-MALAT1), 0.0066 µM; in [8] (MM.1S cells, control (before MALAT1 knockdown)) it was 0.0089 µM. The IC50 in series [9] (NCI-H929, H929 cells transfected with 1 nM anti-MALAT1) was 0.0036 µM; in [9] (NCI-H929, H929 cells, control (before MALAT1 knockdown)) it was 0.0049 µM.
Consider `COc1cccc2c1C(=O)c1c(O)c3c(c(O)c1C2=O)C[C@@](O)(C(=O)CO)C[C@@H]3O[C@H]1C[C@H](N)[C@H](O)[C@H](C)O1` [doxorubicin], for which the IC50 in series [10] (control oligos, 72 hours) turned out to be 2.46 µM; in [10] (setting [12]), 1.48 µM.
Regarding `N[C@@H](Cc1ccc(N(CCCl)CCCl)cc1)C(=O)O` [melphalan], the IC50 in series [11] (control oligos, 72 hours) amounted to 53.4 µM; in series [11] (setting [12]) it was 34 µM.
